Experimental data taken from patent US12240815B2, “Potent and selective human neuronal nitric oxide synthase inhibitors” (Northwestern University, priority 2020, dated 2025).
Structures can show the parent of a compound that is named as a salt. Where two headings read alike, the source gives them in different places.

How the values were obtained:
rat nNOS = rat nNOS (Rattus norvegicus, UniProt P29476); test: NO hemoglobin capture assay, rat nNOS; assay type: biochemical; details: for Selectivity n/i: nNOS versus iNOS
rat nNOS, sequence (P29476 whole entry): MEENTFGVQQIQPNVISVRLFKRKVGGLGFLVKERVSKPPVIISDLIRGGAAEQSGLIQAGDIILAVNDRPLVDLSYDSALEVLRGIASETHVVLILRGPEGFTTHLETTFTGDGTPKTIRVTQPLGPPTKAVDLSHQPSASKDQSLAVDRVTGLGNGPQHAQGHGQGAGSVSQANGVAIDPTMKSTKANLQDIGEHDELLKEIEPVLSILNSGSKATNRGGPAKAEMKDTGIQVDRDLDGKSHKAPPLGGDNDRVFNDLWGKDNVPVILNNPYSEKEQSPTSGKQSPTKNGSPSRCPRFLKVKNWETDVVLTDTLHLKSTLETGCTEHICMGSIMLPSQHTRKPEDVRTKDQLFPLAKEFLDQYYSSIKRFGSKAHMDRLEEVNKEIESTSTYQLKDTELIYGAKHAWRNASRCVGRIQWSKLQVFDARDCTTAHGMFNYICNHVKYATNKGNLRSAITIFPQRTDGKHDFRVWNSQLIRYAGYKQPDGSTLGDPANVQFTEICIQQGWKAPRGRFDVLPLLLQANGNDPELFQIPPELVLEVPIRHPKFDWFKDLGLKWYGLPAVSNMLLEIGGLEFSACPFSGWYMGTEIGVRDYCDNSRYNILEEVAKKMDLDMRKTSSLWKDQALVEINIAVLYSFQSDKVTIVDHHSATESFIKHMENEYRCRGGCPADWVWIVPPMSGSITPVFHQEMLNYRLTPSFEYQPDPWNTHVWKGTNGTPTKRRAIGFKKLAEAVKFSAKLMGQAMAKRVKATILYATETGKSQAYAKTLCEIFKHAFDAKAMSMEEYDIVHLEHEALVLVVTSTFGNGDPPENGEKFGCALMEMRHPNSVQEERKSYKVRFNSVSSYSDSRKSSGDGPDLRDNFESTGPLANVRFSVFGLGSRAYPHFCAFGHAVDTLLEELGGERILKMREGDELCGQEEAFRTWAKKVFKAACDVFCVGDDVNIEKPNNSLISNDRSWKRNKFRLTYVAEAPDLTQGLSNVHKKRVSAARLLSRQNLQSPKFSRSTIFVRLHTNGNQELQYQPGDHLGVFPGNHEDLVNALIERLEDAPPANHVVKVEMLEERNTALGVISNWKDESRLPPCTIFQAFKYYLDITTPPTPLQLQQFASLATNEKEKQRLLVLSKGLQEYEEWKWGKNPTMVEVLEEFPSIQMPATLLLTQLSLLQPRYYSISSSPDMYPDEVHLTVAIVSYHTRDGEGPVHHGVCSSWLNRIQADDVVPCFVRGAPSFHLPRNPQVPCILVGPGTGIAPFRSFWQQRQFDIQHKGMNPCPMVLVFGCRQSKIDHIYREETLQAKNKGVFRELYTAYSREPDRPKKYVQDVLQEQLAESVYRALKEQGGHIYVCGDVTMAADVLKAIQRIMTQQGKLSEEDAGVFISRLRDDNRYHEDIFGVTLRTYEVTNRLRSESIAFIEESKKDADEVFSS

PAMPA-BBB assay = details: for Pe PAMPA-BBB: Table 4; for Papp at 17 h, 200 μM: PAMPA, pH 7.5
human nNOS = human nNOS (Homo sapiens, UniProt P29475); test: NO hemoglobin capture assay, human nNOS; assay type: biochemical; details: for Selectivity Human n/e: human nNOS versus human eNOS
human nNOS, sequence (P29475 whole entry): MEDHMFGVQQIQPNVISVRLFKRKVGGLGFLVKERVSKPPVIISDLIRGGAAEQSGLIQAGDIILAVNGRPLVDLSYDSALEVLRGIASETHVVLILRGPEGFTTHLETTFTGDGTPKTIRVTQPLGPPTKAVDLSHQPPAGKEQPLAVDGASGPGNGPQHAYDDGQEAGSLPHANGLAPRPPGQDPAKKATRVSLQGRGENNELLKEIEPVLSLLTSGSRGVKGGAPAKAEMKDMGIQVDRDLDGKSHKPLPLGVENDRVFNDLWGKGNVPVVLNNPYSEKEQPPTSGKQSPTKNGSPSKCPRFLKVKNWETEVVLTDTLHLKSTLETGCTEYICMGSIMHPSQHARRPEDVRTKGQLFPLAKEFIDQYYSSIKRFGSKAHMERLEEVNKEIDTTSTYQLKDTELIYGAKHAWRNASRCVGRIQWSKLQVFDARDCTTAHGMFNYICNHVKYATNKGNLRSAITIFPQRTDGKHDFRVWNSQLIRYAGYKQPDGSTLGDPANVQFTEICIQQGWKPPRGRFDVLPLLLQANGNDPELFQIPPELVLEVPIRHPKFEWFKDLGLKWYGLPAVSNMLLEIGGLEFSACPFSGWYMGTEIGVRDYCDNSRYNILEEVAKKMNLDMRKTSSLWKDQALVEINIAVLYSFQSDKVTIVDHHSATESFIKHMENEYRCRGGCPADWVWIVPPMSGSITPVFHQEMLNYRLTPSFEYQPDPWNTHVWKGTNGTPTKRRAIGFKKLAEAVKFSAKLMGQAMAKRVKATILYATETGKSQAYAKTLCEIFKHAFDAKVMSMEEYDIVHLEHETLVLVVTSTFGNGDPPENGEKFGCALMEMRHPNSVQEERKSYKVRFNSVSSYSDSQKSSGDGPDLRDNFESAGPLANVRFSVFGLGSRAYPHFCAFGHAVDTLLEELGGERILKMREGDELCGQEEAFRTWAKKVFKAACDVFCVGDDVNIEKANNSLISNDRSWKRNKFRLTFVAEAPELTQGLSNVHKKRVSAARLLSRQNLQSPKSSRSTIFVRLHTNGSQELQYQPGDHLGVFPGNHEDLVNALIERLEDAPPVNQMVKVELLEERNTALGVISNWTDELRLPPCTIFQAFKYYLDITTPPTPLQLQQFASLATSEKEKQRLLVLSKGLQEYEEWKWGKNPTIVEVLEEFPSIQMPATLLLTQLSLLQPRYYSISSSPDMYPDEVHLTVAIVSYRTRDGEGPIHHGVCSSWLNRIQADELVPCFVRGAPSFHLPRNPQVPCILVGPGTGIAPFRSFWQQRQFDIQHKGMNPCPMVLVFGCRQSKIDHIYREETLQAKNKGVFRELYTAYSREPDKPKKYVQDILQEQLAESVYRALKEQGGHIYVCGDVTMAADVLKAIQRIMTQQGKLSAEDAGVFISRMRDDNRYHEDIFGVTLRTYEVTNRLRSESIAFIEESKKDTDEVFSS

human eNOS = human eNOS (Homo sapiens, UniProt P29474); test: NO hemoglobin capture assay, human eNOS
iNOS = iNOS (Mus musculus, UniProt P29477); test: NO hemoglobin capture assay, iNOS (Table 4, species not given)
murine macrophage iNOS = murine macrophage iNOS (Mus musculus, UniProt P29477); test: NO hemoglobin capture assay, murine iNOS; assay type: biochemical
human iNOS = human iNOS (Homo sapiens, UniProt P35228); test: NO hemoglobin capture assay, human iNOS
[1] = Table 4, read-out: Ki Human nNOS
[2] = pH 7.4, read-out: Ki human nNOS
[3] = Table 1, Ki from IC50 by Cheng-Prusoff, 10 μM L-Arg, pH 7.4, 37° C.
[4] = Table 5, Ki from IC50 by Cheng-Prusoff, 8 to 11 concentrations, read-out: Ki HnNOS
[5] = read-out: Ki HiNOS, Table 5, Ki from IC50 by Cheng-Prusoff, 8 to 11 concentrations
[6] = Table 5, Ki from IC50 by Cheng-Prusoff, 8 to 11 concentrations, read-out: Ki RnNOS

CNC/C=C/c1cc(F)cc(CCc2cc(C)cc(N)n2)c1 [Compound 48]
Selectivity n/i (rat nNOS; Table 4): 130
Ki (rat nNOS; Table 4, read-out: Ki Rat nNOS): 21 nM
Pe PAMPA-BBB (PAMPA-BBB assay): 10.30 ± 0.02 10^-6 cm/s
Selectivity nNOS human/rat (human nNOS; Table 4): 1.3
Selectivity Human n/e (human nNOS; Table 4): 721
Ki (human nNOS; [1]): 28 nM
Ki (human eNOS): 20200 nM
Ki (iNOS): 2730 nM

Cc1cc(N)nc(CCc2cc(F)cc(CC[C@@H]3CCCN3C)c2)c1 [Compound 5, (R)-6-(3-fluoro-5-(2-(1-methylpyrrolidin-2-yl)ethyl)phenethyl)-4-methylpyridin-2-amine]
Ki (rat nNOS; pH 7.4, read-out: Ki rat nNOS): 26 nM
Ki (human nNOS; [2]): 52 nM
Ki (murine macrophage iNOS; [3]): 2910 nM

Cc1cc(N)nc(CCc2cc(C#CCN(C)C)cc(F)c2F)c1 [Compound 16, 6-(5-(3-(dimethylamino)prop-1-yn-1-yl)-2,3-difluorophenethyl)-4-methylpyridin-2-amine]
Ki (rat nNOS; pH 7.4, read-out: Ki rat nNOS): 81 nM
Ki (human nNOS; [2]): 84 nM
Ki (murine macrophage iNOS; [3]): 4410 nM

Cc1cc(N)nc(CCCN(C)C)c1 [Compound 69, 6-(3-(Dimethylamino)propyl)-4-methylpyridin-2-amine hydrochloride]
Ki (human nNOS; [4]): 29 nM
Ki (human eNOS): 537 nM
Ki (human iNOS; [5]): 2830 nM

CNCc1ccc2ncc(CCc3cc(C)cc(N)n3)cc2c1 [Compound 49]
Selectivity n/i (rat nNOS; Table 4): 99
Ki (rat nNOS; Table 4, read-out: Ki Rat nNOS): 38 nM
Pe PAMPA-BBB (PAMPA-BBB assay): No permeability
Selectivity nNOS human/rat (human nNOS; Table 4): 0.9
Selectivity Human n/e (human nNOS; Table 4): 614
Ki (human nNOS; [1]): 36 nM
Ki (human eNOS): 22100 nM
Ki (iNOS): 3760 nM

Cc1cc(N)nc(CCc2cc(CN(C)C)cc(F)c2F)c1 [Compound 54]
Ki (iNOS): 76 nM

CN(C)CCc1cc(F)c(F)c(CCc2cccc(N)n2)c1 [Compound 59, 6-(5-(2-(Dimethylamino)ethyl)-2,3-difluorophenethyl)pyridin-2-amine hydrochloride]
Ki (rat nNOS; Ki RnNOS, Table 5, Ki from IC50 by Cheng-Prusoff, 8 to 11 concentrations): 940 nM
Ki (human nNOS): 3160 nM

CN(C)CCc1cc(F)c(F)c(CCc2cc(C(F)(F)F)cc(N)n2)c1 [Compound 64, 6-(5-(2-(Dimethylamino)ethyl)-2,3-difluorophenethyl)-4-(trifluoromethyl)pyridin-2-amine]
Ki (human eNOS): 102000 nM

CNCCCc1cc(C)cc(N)n1 [Compound 70, 4-Methyl-6-(3-(methylamino)propyl)pyridin-2-amine hydrochloride]
Ki (rat nNOS; [6]): 29 nM
Selectivity hn/rn (human nNOS; Table 5): 1.4
Ki (human nNOS; [4]): 21 nM
Ki (human iNOS; [5]): 669 nM

CCO[C@@H]1C[C@H](CCc2cc(F)c(F)c(CCc3cc(C)cc(N)n3)c2)N(C)C1 [Compound 20, 6-(5-(2-((2S,4R)-4-ethoxy-1-methylpyrrolidin-2-yl)ethyl)-2,3-difluorophenethyl)-4-methylpyridin-2-amine]
Ki (rat nNOS; pH 7.4, read-out: Ki rat nNOS): 55 nM
Ki (human nNOS; [2]): 87 nM
Ki (murine macrophage iNOS; [3]): 4500 nM

Cc1cc(N)nc(CCc2cc(CC[C@H]3CCCN3C)cc(F)c2F)c1 [Compound 18, (S)-6-(2,3-difluoro-5-(2-(1-methylpyrrolidin-2-yl)ethyl)phenethyl)-4-methylpyridin-2-amine]
Papp at 17 h, 200 μM (PAMPA-BBB assay): ~18 ×10⁻⁶ cm/s

Cc1cc(N)nc(CCc2cc(CC[C@H]3COCCN3C)cc(F)c2F)c1 [Compound 19, (S)-6-(2,3-difluoro-5-(2-(4-methylmorpholin-3-yl)ethyl)phenethyl)-4-methylpyridin-2-amine]
Ki (rat nNOS; pH 7.4, read-out: Ki rat nNOS): 62 nM
Ki (human nNOS; [2]): 89 nM
Ki (murine macrophage iNOS; [3]): 3450 nM

Cc1cc(N)nc(CCc2c(F)c(F)cc(CC[C@@H]3CCCN3C)c2F)c1 [Compound 51]
Selectivity n/i (rat nNOS; Table 4): 88
Ki (rat nNOS; Table 4, read-out: Ki Rat nNOS): 67 nM
Pe PAMPA-BBB (PAMPA-BBB assay): 20 ± 0.85 10^-6 cm/s
Selectivity nNOS human/rat (human nNOS; Table 4): 1.7
Selectivity Human n/e (human nNOS; Table 4): 266
Ki (human nNOS; [1]): 112 nM
Ki (human eNOS): 29800 nM
Ki (iNOS): 5880 nM

Cc1cc(N)nc(CCc2cc(CCN(C)C)cc(F)c2F)c1 [Compound 58, 6-(5-(2-(Dimethylamino)ethyl)-2,3-difluorophenethyl)-4-methylpyridin-2-amine hydrochloride]
Pe PAMPA-BBB (PAMPA-BBB assay): 19.5 ± 1.4 10^-6 cm/s
Ki (iNOS): 1050 nM

Cc1cc(N)nc(CCc2cc(CCCN(C)C)cc(F)c2F)c1 [Compound 10, 6-(5-(3-(dimethylamino)propyl)-2,3-difluorophenethyl)-4-methylpyridin-2-amine]
Ki (rat nNOS; pH 7.4, read-out: Ki rat nNOS): 19 nM
Ki (human eNOS; read-out: Ki human eNOS): 35000 nM
Ki (murine macrophage iNOS; pH 7.4): 823 nM
Ki (human iNOS; read-out: Ki human iNOS): 1310 nM

Cc1cc(N)nc(CCCN2CCN(C)CC2)c1 [Compound 72, 4-Methyl-6-(3-(4-methylpiperazin-1-yl)propyl)pyridin-2-amine]
Ki (rat nNOS; read-out: Ki RnNOS): 55 nM
Selectivity hn/rn (human nNOS; Table 5): 3.0
Ki (human nNOS; [4]): 171 nM
Ki (human iNOS; [5]): 10200 nM

Nc1cc(Cl)cc(OCc2cccc(F)c2F)n1 [Compound 68, 4-Chloro-6-((2,3-difluorobenzyl)oxy)pyridin-2-aminehydrochloride]
Ki (rat nNOS; read-out: Ki RnNOS): 102000 nM

Cc1cc(N)nc(CCc2cc(CC[C@@H]3CCCN3C)cc(F)c2F)c1 [Compound 17, (R)-6-(2,3-difluoro-5-(2-(1-methylpyrrolidin-2-yl)ethyl)phenethyl)-4-methylpyridin-2-amine]
Papp at 17 h, 200 μM (PAMPA-BBB assay): ~18 ×10⁻⁶ cm/s

CNCC#Cc1cc(C)cc(N)n1 [Compound 71, 4-Methyl-6-(3-(methylamino)prop-1-yn-1-yl)pyridin-2-amine hydrochloride]
Ki (rat nNOS; [6]): 88 nM
Selectivity hn/rn (human nNOS; Table 5): 1.0
Ki (human nNOS; [4]): 92 nM
Ki (human iNOS; [5]): 3580 nM

CNCC#Cc1cc(F)c(F)c(CCc2cc(C)cc(N)n2)c1F [Compound 50]
Selectivity n/i (rat nNOS; Table 4): 48
Ki (rat nNOS; Table 4, read-out: Ki Rat nNOS): 119 nM
Pe PAMPA-BBB (PAMPA-BBB assay): 19.10 ± 0.5 10^-6 cm/s
Selectivity nNOS human/rat (human nNOS; Table 4): 1.4
Selectivity Human n/e (human nNOS; Table 4): 157
Ki (human nNOS; [1]): 168 nM
Ki (human eNOS): 26500 nM
Ki (iNOS): 5780 nM

Cc1cc(N)nc(CCc2cc(F)cc(CC[C@@H]3C[C@H](F)CN3C)c2)c1 [Compound 9, 6-(3-fluoro-5-(2-((2R,4S)-4-fluoro-1-methylpyrrolidin-2-yl)ethyl)phenethyl)-4-methylpyridin-2-amine]
Ki (murine macrophage iNOS; [3]): 5010 nM

CNCCc1cc(F)c(F)c(CCc2cc(C)cc(N)n2)c1 [Compound 60, 6-(2,3-Difluoro-5-(2-(methylamino)ethyl)phenethyl)-4-methylpyridin-2-amine]
Ki (rat nNOS): 28 nM
Ki (human nNOS): 24 nM
Selectivity hn/hi (human nNOS; Table 5): 72
Selectivity hn/rn (human nNOS; Table 5): 1.2
Ki (human iNOS): 1750 nM

Cc1cc(N)nc(CCc2c(F)c(F)cc(CCCN(C)C)c2F)c1 [Compound 13, 6-(3-(3-(dimethylamino)propyl)-2,5,6-trifluorophenethyl)-4-methylpyridin-2-amine]
Ki (rat nNOS; pH 7.4, read-out: Ki rat nNOS): 47 nM
Ki (human nNOS; [2]): 58 nM
Ki (murine macrophage iNOS; [3]): 3260 nM

Cc1cc(N)nc(CCc2cc(F)cc(C#CCN(C)C)c2)c1 [Compound 3, 6-(3-(3-(dimethylamino)prop-1-yn-1-yl)-5-fluorophenethyl)-4-methylpyridin-2-amine]
drop in rat nNOS potency compared to 1 (rat nNOS): more than 2 fold
Ki (rat nNOS; pH 7.4, read-out: Ki rat nNOS): 58 nM
drop in human nNOS potency compared to 1 (human nNOS): > 4 fold
Ki (human nNOS; [2]): 124 nM
Ki (murine macrophage iNOS; [3]): 4890 nM

Cc1cc(N)nc(CCc2c(F)c(F)cc(CC[C@H]3CCCN3C)c2F)c1 [Compound 52]
Selectivity n/i (rat nNOS; Table 4): 108
Ki (rat nNOS; Table 4, read-out: Ki Rat nNOS): 93 nM
Pe PAMPA-BBB (PAMPA-BBB assay): 20.3 ± 0.16 10^-6 cm/s
Selectivity nNOS human/rat (human nNOS; Table 4): 1.62
Selectivity Human n/e (human nNOS; Table 4): 196
Ki (human nNOS; [1]): 151 nM
Ki (human eNOS): 27300 nM
Ki (iNOS): 10000 nM

Cc1cc(N)nc(C#CCN2CCN(C)CC2)c1 [Compound 73, 4-Methyl-6-(3-(4-methylpiperazin-1-yl)prop-1-yn-1-yl)pyridin-2-amine]
Ki (rat nNOS; [6]): 947 nM
Selectivity hn/rn (human nNOS; Table 5): 2.2
Ki (human nNOS; [4]): 2120 nM
Ki (human iNOS; [5]): 114000 nM

Cc1cc(N)nc(CCc2cc(F)cc(CC[C@@H]3C[C@H](F)CN3)c2)c1 [Compound 8, 6-(3-fluoro-5-(2-((2R,4S)-4-fluoropyrrolidin-2-yl)ethyl)phenethyl)-4-methylpyridin-2-amine]
Ki (rat nNOS; pH 7.4, read-out: Ki rat nNOS): 65 nM
drop in human nNOS potency compared to 1 (human nNOS): 4 fold
Ki (human nNOS; [2]): 129 nM
Ki (murine macrophage iNOS; [3]): 4540 nM

Cc1cc(N)nc(CCc2cc(F)cc(CC[C@H]3CCCN3C)c2)c1 [Compound 7, (S)-6-(3-fluoro-5-(2-(1-methylpyrrolidin-2-yl)ethyl)phenethyl)-4-methylpyridin-2-amine]
Ki (rat nNOS; pH 7.4, read-out: Ki rat nNOS): 33 nM
Ki (human nNOS; [2]): 84 nM
Ki (murine macrophage iNOS; [3]): 3390 nM

CNCC#Cc1cc(F)cc(CCc2cc(C)cc(N)n2)c1 [Compound 2, 6-(3-fluoro-5-(3-(methylamino)prop-1-yn-1-yl)phenethyl)-4-methylpyridin-2-amine]
Ki (rat nNOS; pH 7.4, read-out: Ki rat nNOS): 32 nM
Ki (human nNOS; [2]): 58 nM
Ki (murine macrophage iNOS; [3]): 7620 nM

CNC/C=C\c1cc(F)cc(CCc2cc(C)cc(N)n2)c1 [Compound 47]
Selectivity n/i (rat nNOS; Table 4): 73
Ki (rat nNOS; Table 4, read-out: Ki Rat nNOS): 31 nM
Pe PAMPA-BBB (PAMPA-BBB assay): 10.92 ± 0.02 10^-6 cm/s
Selectivity nNOS human/rat (human nNOS; Table 4): 2.5
Selectivity Human n/e (human nNOS; Table 4): 320
Ki (human nNOS; [1]): 77 nM
Ki (human eNOS): 24700 nM
Ki (iNOS): 2280 nM

Cc1cc(N)nc(CCc2cc(F)cc(CCCN(C)C)c2F)c1 [Compound 12, 6-(3-(3-(dimethylamino)propyl)-2,5-difluorophenethyl)-4-methylpyridin-2-amine]
Ki (rat nNOS; pH 7.4, read-out: Ki rat nNOS): 79 nM
Ki (human nNOS; [2]): 157 nM
Ki (murine macrophage iNOS; [3]): 1950 nM
